{
  "source": "patent US20210244720A1",
  "about": "“Therapeutic Tyrosine Kinase Inhibitors for Relapsing Multiple Sclerosis (RMS)” (Genzyme Corporation, priority 2020, published 2021)",
  "origin": "cited, not measured here",
  "tested_on": "RMS patients",
  "details": "from Week 12; cited from earlier work",
  "data": [
    {"smiles": "C=CC(=O)N1CCC(CNc2ncnc(N)c2-c2ccc(Oc3ccccc3)cc2)CC1", "note": "[evobrutinib]", "values": [
      {"measurement": "reduction of new Gd-enhancing T1 lesions", "result": "meaningful reduction"}
    ]}
  ]
}
